Results as given in ChEMBL document CHEMBL1134017, “Heterocycle-based MMP inhibitors with P2' substituents” (Bioorg Med Chem Lett, 2001).

Key:
[1] = molecular target: Collagenase 3 (Rattus norvegicus, UniProt P23097)
Description: Inhibition of Matrix metalloprotease-13

[2] = molecular target: T1, Matrilysin (Homo sapiens, UniProt P09237)
T1 sequence (P09237 whole entry): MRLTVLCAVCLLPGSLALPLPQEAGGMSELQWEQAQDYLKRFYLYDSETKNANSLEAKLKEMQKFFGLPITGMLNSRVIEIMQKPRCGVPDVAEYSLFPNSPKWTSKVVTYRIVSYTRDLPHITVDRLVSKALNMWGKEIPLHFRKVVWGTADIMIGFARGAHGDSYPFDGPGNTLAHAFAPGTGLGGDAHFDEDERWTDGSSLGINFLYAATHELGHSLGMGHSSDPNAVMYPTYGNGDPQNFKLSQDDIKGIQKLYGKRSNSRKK
Description: Inhibition of Matrix metalloprotease-7

[3] = molecular target: Neutrophil collagenase (Homo sapiens, UniProt P22894)
Description: Inhibition of Matrix metalloprotease-8

[4] = molecular target: Matrix metalloproteinase-9 (Homo sapiens, UniProt P14780)
Description: Inhibition of Matrix metalloprotease-9

[5] = molecular target: Stromelysin-1 (Homo sapiens, UniProt P08254)
Description: Inhibition of Matrix metalloprotease-3

[6] = molecular target: T2, Interstitial collagenase (Homo sapiens, UniProt P03956)
T2 sequence (P03956 whole entry): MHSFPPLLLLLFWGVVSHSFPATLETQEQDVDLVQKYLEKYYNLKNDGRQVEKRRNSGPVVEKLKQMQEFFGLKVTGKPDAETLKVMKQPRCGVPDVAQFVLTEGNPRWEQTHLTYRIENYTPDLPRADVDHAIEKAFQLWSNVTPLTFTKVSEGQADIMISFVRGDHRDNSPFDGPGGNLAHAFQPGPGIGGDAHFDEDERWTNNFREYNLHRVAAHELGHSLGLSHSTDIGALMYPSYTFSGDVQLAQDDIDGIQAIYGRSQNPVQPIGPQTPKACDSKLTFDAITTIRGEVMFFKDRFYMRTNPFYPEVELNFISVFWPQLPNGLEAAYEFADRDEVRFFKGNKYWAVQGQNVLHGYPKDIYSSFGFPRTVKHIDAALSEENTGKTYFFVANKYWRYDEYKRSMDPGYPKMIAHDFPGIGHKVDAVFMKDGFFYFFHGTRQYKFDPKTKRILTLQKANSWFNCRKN
Description: Inhibition of human Matrix metalloprotease-1

[7] = molecular target: T1, Matrilysin; remark: listed apart in the source
Description: Inhibition of Matrix metalloprotease-7

Neutrophil collagenase, sequence (P22894 whole entry): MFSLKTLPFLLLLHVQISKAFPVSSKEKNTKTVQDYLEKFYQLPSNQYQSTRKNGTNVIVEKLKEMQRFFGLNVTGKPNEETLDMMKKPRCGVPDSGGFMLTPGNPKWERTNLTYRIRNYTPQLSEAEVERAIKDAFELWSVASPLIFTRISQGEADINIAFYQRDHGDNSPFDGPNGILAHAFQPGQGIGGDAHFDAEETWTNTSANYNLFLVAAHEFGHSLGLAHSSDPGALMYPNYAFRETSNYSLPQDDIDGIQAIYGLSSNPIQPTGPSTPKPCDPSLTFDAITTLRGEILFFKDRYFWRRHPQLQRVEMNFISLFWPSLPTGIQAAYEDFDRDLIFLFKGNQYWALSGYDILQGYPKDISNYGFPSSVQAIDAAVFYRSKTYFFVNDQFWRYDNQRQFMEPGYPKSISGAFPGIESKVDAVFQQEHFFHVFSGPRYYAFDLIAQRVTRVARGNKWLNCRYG
Matrix metalloproteinase-9, sequence (P14780 whole entry): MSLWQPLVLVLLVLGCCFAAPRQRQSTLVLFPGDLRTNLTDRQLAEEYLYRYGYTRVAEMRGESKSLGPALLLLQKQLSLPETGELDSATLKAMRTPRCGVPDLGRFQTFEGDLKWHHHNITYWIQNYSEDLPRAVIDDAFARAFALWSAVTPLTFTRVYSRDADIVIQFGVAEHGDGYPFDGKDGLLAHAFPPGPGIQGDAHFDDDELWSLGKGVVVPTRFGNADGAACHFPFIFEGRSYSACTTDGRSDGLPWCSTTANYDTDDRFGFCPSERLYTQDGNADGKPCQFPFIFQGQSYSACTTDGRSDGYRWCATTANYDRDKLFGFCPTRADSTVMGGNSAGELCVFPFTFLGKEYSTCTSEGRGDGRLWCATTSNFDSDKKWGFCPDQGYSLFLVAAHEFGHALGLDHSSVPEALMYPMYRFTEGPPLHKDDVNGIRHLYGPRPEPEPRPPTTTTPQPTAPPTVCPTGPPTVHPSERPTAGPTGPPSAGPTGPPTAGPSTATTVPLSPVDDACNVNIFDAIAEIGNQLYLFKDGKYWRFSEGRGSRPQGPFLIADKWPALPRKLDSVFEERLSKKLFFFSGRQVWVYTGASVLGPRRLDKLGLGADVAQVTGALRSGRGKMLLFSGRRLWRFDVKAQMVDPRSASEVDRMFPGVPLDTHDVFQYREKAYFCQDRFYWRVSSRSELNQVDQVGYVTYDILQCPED
Stromelysin-1, sequence (P08254 whole entry): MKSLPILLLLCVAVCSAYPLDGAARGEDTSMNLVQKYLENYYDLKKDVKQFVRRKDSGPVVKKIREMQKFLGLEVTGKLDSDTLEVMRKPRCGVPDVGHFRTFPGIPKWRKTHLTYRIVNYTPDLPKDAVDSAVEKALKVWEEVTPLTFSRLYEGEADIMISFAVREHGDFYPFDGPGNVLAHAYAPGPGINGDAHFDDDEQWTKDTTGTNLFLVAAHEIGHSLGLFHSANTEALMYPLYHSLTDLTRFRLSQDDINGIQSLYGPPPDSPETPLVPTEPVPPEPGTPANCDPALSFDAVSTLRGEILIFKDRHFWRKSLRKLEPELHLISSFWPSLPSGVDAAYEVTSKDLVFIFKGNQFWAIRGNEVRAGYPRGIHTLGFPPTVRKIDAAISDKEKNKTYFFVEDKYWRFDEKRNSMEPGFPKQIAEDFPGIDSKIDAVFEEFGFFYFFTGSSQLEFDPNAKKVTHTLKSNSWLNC

| SMILES | IC50 [1] | IC50 [2] | IC50 [3] | IC50 [4] | IC50 [5] | IC50 [6] | IC50 [7] |
| --- | --- | --- | --- | --- | --- | --- | --- |
| COc1ccc(S(=O)(=O)N2CCN(S(=O)(=O)c3cn(C)cn3)CC[C@@H]2C(=O)NO)cc1 | 2.4 nM | 2780 nM | 6.6 nM | 5.5 nM | 39.2 nM | 346 nM |  |
| COc1ccc(S(=O)(=O)N2CN(C(C)C)C(=O)C[C@@H]2C(=O)NO)cc1 | 2.9 nM |  | 6.3 nM | 4.2 nM |  | 643 nM | 3460 nM |
| COc1ccc(S(=O)(=O)N2CN(C)C(=O)C[C@@H]2C(=O)NO)cc1 | 7.9 nM |  | 47.3 nM | 24.1 nM |  | 2200 nM | > 10000 nM |
| COCCN1CN(S(=O)(=O)c2ccc(OC)cc2)[C@@H](C(=O)NO)CC1=O |  |  | 102 nM | 52.5 nM | 180 nM | 696 nM | 10000 nM |
| COc1ccc(S(=O)(=O)N2CN(C3CCCCC3)C(=O)C[C@@H]2C(=O)NO)cc1 | 0.75 nM |  | 2.8 nM | 3.3 nM |  | 465 nM | 776 nM |

Stronger by IC50 [6], values ahead:

| IC50 [1] | IC50 [2] | IC50 [3] | IC50 [4] | IC50 [5] | IC50 [6] | IC50 [7] | SMILES |
| --- | --- | --- | --- | --- | --- | --- | --- |
| 0.34 nM |  | 1.5 nM | 1.1 nM |  | 320 nM | 909 nM | COc1ccc(S(=O)(=O)N2CN(C(C)(C)C)C(=O)C[C@@H]2C(=O)NO)cc1 |
| 2.1 nM | 737 nM | 3.3 nM | 1.8 nM | 14 nM | 97 nM |  | COc1ccc(S(=O)(=O)N2CCN(C(=O)OCc3ccccc3)CC[C@@H]2C(=O)NO)cc1 |
| 0.84 nM | 905 nM | 1.8 nM |  | 6.3 nM | 28.9 nM |  | COc1ccc(S(=O)(=O)N2CC[C@H](C(=O)NO)N(S(=O)(=O)c3ccc(OC)cc3)CC2)cc1 |
|  |  | 6.4 nM | 6.8 nM |  | 22.2 nM | > 10000 nM | COc1ccc(S(=O)(=O)N2CN(Cc3ccccc3)C(=O)C[C@@H]2C(=O)NO)cc1 |
| 1.9 nM |  | 3.7 nM | 4.1 nM | 6.5 nM | 22 nM | 369 nM | COc1ccc(S(=O)(=O)N2CCN(C(C)C)C(=O)C[C@@H]2C(=O)NO)cc1 |
|  |  | 1.5 nM | 1 nM | 3.3 nM | 13.6 nM | 88 nM | COc1ccc(S(=O)(=O)N2CCN(Cc3ccccc3)C(=O)C[C@@H]2C(=O)NO)cc1 |
| 2 nM |  |  |  | 3.4 nM | 1.2 nM |  | COc1ccc(S(=O)(=O)N2C[C@@H]3CCCN3C(=O)C[C@@H]2C(=O)NO)cc1 |
